Drawing on a melting point compilation (Tetko et al.; mined from patent text by program, amines drawn as free bases though some values may be those of a salt), this text covers melting point for 90 compounds.

For the compound `CNC(=C[N+](=O)[O-])NCCCCc1ccc(CN(C)C)s1`, the melting point (as a rule, the temperature, or range, at which the solid turns liquid) lay within 104 to 106 °C.

In the case of `N#Cc1c(N2CCN(C(=O)c3ccco3)CC2)c2cc(Cl)ccc2n(Cc2ccccc2)c1=O`, the melting point is 221 °C.

On to `Cc1cccc(-c2sc(N)nc2-c2ccnc(-c3ccc(N4CCOCC4)cc3)c2)n1`, for which the melting point stood at 246 °C.

Compound `COc1ccnc2[nH]cc(C(C)=O)c12` came in with a melting point greater than 210 °C.

Compound `CC(C)(N)C1CN([C@@H]2Cc3ccccc3[C@H]2Oc2ccc(C#N)cc2Cl)C1` showed a melting point of 93 °C.

Compound `CN1CC(CCN2CCN(c3ccccn3)CC2)OC1=O` (stereo not given) had a melting point of 108 to 109 °C.

As for `COC(=O)c1cc(-c2ccc(OC)c(OC)c2)nn(CC2CC2)c1=O`, the melting point is 136 to 137 °C.

On to `Cc1cc(NC(=O)N2CCc3cc(N(C)C)ccc32)c2ccccc2n1`, for which the melting point was 252 to 253 °C.

The compound `COC1=C(OC)C(=O)C2=C(CCC(CCOc3cc(OC)cc(OC)c3)CC2)C1=O` had a melting point of 63 to 65 °C.

In turn, `Cc1ccc([C@@H]2Sc3ccccc3NC(=O)[C@@H]2CN2CCN(C)CC2)cc1` (relative stereo) yielded a melting point of 196 °C.

Turning to `Cc1cc(=O)[nH]c2ccc(Br)cc12`, the melting point lay in the range of 292 to 299 °C.

The compound `Cc1c(C(=O)O)cnn1-c1cccc(Cl)c1` yielded a melting point of 145 °C.

`O=C1CN(c2ccccc2)C(=O)N1C(=O)c1ccccc1Cl` had a melting point of 184 to 185 °C.

`COc1cccc2c(CC(=O)OCC(=O)CCc3ccccc3)coc12` had a melting point of 68 to 69 °C.

`c1ccc(CCN2CCC(c3cc(-c4ccccn4)[nH]n3)CC2)cc1` had a melting point of 155 to 157 °C.

`COc1c(F)cc(-c2c(-c3ccc(S(C)(=O)=O)cc3)cnn(-c3ccc(F)c(Cl)c3)c2=O)cc1F` came in with a melting point of 195 to 197 °C.

As to `CC(=O)NNc1ccc(Cl)c(Cl)c1`, the melting point lay within 179 to 182 °C.

Turning to `O=C(CCCl)NC12CCCC(C1)C1CCC2C1` (stereo not given), the melting point was 192 to 195 °C.

`CC(C)CCS(=O)(=O)NC(=O)/C=C/c1cc(OC2CCOCC2)nn1Cc1ccc(Cl)cc1Cl` came in with a melting point of 143 to 144 °C.

In turn, `CN(C)CCCNC(=O)c1ccc(-c2ccc3nnn(Cc4ccc5ncccc5c4)c3n2)cc1F` registered a melting point of 148 to 150 °C.

The compound `CCS(=O)(=O)NCC(O)(Cn1cncn1)c1ccc(Cl)cc1Cl` (stereo not given) yielded a melting point of 144 to 145 °C.

In turn, `CS(=O)(=O)c1nnc(S(=O)(=O)Cc2ccc(Cl)cc2)s1` yielded a melting point of 159 to 160 °C.

`CC(C)(C)OC(=O)[C@H](CC1CC1)N1C(=O)NC(C(F)(F)F)(C(F)(F)F)C1=O` showed a melting point of 76 to 77 °C.

`COc1ccc2c(c1)C13CCN(C#N)C(C2)C1C(C)CC(=O)C3` (stereo not given): the melting point lay within 202 to 205 °C.

Compound `CCN(CC)CCn1nc2c3c(c(N)ccc31)Oc1ccccc1-2` had a melting point of 78 to 80 °C.

For `CCOC(=O)c1ccc(-c2nn(Cc3ccc(Cl)s3)c3ccccc23)o1`, the melting point was in the range of 124 to 126 °C.

Consider `COc1ccc(-c2c(S(C)(=O)=O)ccc(C(=O)c3cnn(C(C)(C)C)c3OC(C)=O)c2C)cc1`, for which the melting point is 160 to 163 °C.

`Cc1ccc(Oc2ccccc2-n2cc(C(=O)O)cn2)c(O)c1`: the melting point lay in the range of 219 to 221 °C.

Take `CC(=O)OC1CC2=CCC3C4CCC(C(C)CCC=C(C)C)C4(C)CCC3C2(C)C(OC(C)=O)C1` (stereo not given): the melting point lay in the range of 133 to 134 °C.

The compound `O=C(O)Cc1cccc(NC(=O)NC2C(=O)N(CC(=O)N3CCCC3)c3ccccc3N(CC(=O)N3CCCC3)C2=O)c1` showed a melting point of 228 to 230 °C.

In turn, `O=C/C(=C/c1ccccc1)c1ccc(Cl)cc1` displayed a melting point of 70 to 75 °C.

The compound `CNC(=C[N+](=O)[O-])NCCSCc1nc(CN(C)C)sc1C` returned a melting point of 104 to 106 °C.

In turn, `Cn1ccc2c1CCn1ncnc1C2=C1CCNCC1` gave a melting point of 183 °C.

Regarding `N#Cc1ccc(-c2cn(-c3ccc(I)cc3)c(S)n2)cc1`, the melting point fell in the range of 285 to 290 °C.

Compound `COc1ccc(CNc2nc[nH]n2)cc1OC1CCCC1` returned a melting point of 203 to 204 °C.

`OC1CCCN(CCCOc2ccc3cc(-c4n[nH]c5cc(-c6ccccc6)sc45)[nH]c3c2)C1` (stereo not given) had a melting point of 213 to 216 °C.

`O=c1[nH]c2ccc(Cl)cc2n1-c1cccc(Cl)c1` yielded a melting point of 112 °C.

As for `C=C(CN1C(=O)[C@H]2CCCN2C(=O)c2ccccc21)c1ccc(C(=O)Nc2ccccc2N)cc1`, the melting point was 160 to 162 °C.

Take `COc1ccc(-n2nnc(-c3ccc(Cl)cc3C(F)(F)F)c2N)cc1`: the melting point was 159 to 160 °C.

Regarding `CN(CCCNC(=O)c1ccc(OC(F)(F)F)cc1)CCCNC(=O)c1ccc(OC(F)(F)F)cc1`, the melting point was in the range of 110 to 111 °C.

As to `O=C(CCc1cc(-c2ccccc2)nc2ccccc12)N1CCCC1`, the melting point was found to be 116 °C.

For `CCC(C)CNNC(=O)c1cc(N)cc(C(=O)NNCC(C)CC)c1` (stereo not given), the melting point is 162 to 163 °C.

As for `Cc1nn(-c2c(Cl)cc(C(F)(F)F)cc2Cl)nc1CN(C)C`, the melting point was 67 to 68 °C.

The compound `COCCCn1c(CO)cc2c3c(c(-c4ccccc4Cl)cc21)C(=O)NC3=O` showed a melting point of 187 to 189 °C.

`c1c[nH]c(C(c2ccc[nH]2)C23CC4CC(CC(C4)C2)C3)c1` had a melting point of 168 to 169 °C.

In turn, `COc1cc2ncc(CO)c(-c3ccnc(NN)c3)c2cc1OC` registered a melting point of 217 to 220 °C.

Compound `Cc1oc(-c2ccccc2)nc1COc1ccc(COc2ncccc2CC#N)cn1` came in with a melting point of 110 to 111 °C.

As for `COc1c(NC(=O)CC(C)(C)C)c(C)c(C)c2c1C(c1ccc(C(C)C)cc1)CO2` (stereo not given), the melting point fell in the range of 161 to 162 °C.

On to `CC(C#Cc1ccc(-c2cccnc2S)o1)N(O)C(N)=O` (stereo not given), for which the melting point came out at 145 °C.

As to `Cc1ccc(S(=O)(=O)c2ccc3[nH]cc(CCN)c3c2)cc1`, the melting point lay in the range of 137 to 140 °C.

`CC(=O)Nc1ccc2c(c1)C(=O)C1(CC1)O2` gave a melting point of 211 to 212 °C.

For `CS(=O)c1cc(Br)nc(Br)c1` (stereo not given), the melting point lay in the range of 98 to 100 °C.

In the case of `O=C(O)c1cn(-c2cc([N+](=O)[O-])c(F)c(F)c2F)c2nc(Cl)c(F)cc2c1=O`, the melting point lay within 216 to 221 °C.

`Nc1ccc(C(=O)c2cc(F)ccc2F)cc1` registered a melting point of 101 to 103 °C.

Consider `COc1ccc(CN(C(=O)C2CCCc3c(O)cccc32)c2ccc(C(C)C)cc2)cn1` (stereo not given), for which the melting point was determined as 158 °C.

As to `Cc1ccc(-c2c(C=O)n(C)c(=O)c3ncccc23)cc1`, the melting point was in the range of 282 to 284 °C.

Compound `COc1ccc(-c2nc(SCc3cccc(CSc4ncnc5nc[nH]c45)c3)[nH]c2-c2ccc(OC)cc2)cc1` registered a melting point of 129 to 130 °C.

Take `CCCCCCC/C=C/C(=O)NCC(C)C`: the melting point lay within 42 to 45 °C.

Compound `O=C1c2ccccc2C(=O)N1CC(Cl)(CCl)c1ccccc1` (stereo not given) gave a melting point of 114 to 115 °C.

`Cc1cnccc1CO` returned a melting point of 77 to 80 °C.

`CCOC(=O)C=C(C)Nc1cc(C)ccc1C`: the melting point came out at 67 °C.

In the case of `OC(CCCN1CCN(c2ncc(F)cn2)CC1)c1ccc(F)c2ccccc12` (stereo not given), the melting point fell in the range of 129 to 131 °C.

With `CCCCC(Cc1ccc(OCCNC(=O)c2ccc(-c3ccc(CO)cc3)cc2)cc1)C(=O)O` (stereo not given), the melting point was in the range of 111 to 113 °C.

The compound `CS(=O)(=O)N(c1cccc(CN2CCN(C(c3ccccc3)c3ccccc3)CC2)n1)S(C)(=O)=O` registered a melting point of 167 to 169 °C.

`CSc1nc(-c2ccc(C#N)cc2)cn1-c1ccc(Br)cc1` registered a melting point of 188 to 190 °C.

In the case of `Cc1[nH]c2ccc(F)cc2c1CCCN1CCN(c2ccccc2)CC1`, the melting point fell in the range of 146 to 147 °C.

As to `CCOC(=O)c1ccc(-n2cnnc2)cc1`, the melting point lay in the range of 209 to 211 °C.

`CCOC(=O)CNc1ncccc1NC(=O)c1ccccc1Cl` returned a melting point of 111 to 112 °C.

`COC(=O)c1cccc(C=CC(=O)O)c1` came in with a melting point of 189 to 190 °C.

`CC1(C)CC(OC(=O)CCCCCCCCC(=O)OC2CC(C)(C)N(CC#N)C(C)(C)C2)CC(C)(C)N1CC#N`: the melting point was determined as 91 °C.

Turning to `COc1ccc(C(=O)N2c3ccccc3C(N3CCCCc4ccccc43)=CC2C)cc1OC` (stereo not given), the melting point lay in the range of 151 to 152 °C.

`CCn1cc(C(=O)O)c(=O)c2cc(F)c(N3CCC(NC(C)=O)C3)nc21` (stereo not given) gave a melting point of 283 to 284 °C.

As for `CNC(C)C1CCN(c2nc3c(cc2F)c(=O)c(C(=O)O)cn3C2CC2)C1` (stereo not given), the melting point lay in the range of 199 to 202 °C.

The compound `O=C1CCc2ccc3ncoc3c21` came in with a melting point of 188 to 190 °C.

In turn, `Cc1nc(-n2cnn(CC3CC3)c2=O)sc1C(=O)NCc1ccccn1` had a melting point of 160 to 161 °C.

As to `Nc1cc(Cl)cc(NCCO)c1[N+](=O)[O-]`, the melting point was 183 °C.

In turn, `N#Cc1cccc2c1ccc1nc(O)c(O)nc12` showed a melting point greater than 300 °C.

`CSc1nc(-c2ccc(N)cc2)c[nH]1` returned a melting point of 85 to 86 °C.

`C=CCN(CC=C)c1ccc(C=Cc2ccc(S(C)(=O)=O)cc2)cc1`: the melting point was 101 to 102 °C.

As for `CC1CC2=CC(=O)CCC2C2C(F)CC3(C)C(=O)CCC3C12` (stereo not given), the melting point came to 84.8 °C.

The compound `Oc1ccc2cc(Br)ccc2c1-c1c(O)ccc2cc(Br)ccc12` had a melting point of 109 to 114 °C.

The compound `Cc1nnnn1C(C=CC=O)=C(c1ccc(F)cc1)c1ccc(F)cc1` had a melting point of 72 to 78 °C.

Turning to `CCc1ccc2c(c1)OC(C(F)(F)F)C(C(=O)O)=C2` (stereo not given), the melting point lay in the range of 167 to 169 °C.

The compound `CCCCCCSc1nn2c(=O)cc(O)nc2s1` registered a melting point of 187 to 192 °C.

The compound `CC(C(O)c1ccc2[nH]c(=O)[nH]c2c1)N1CCC(Cc2ccccc2)CC1` (stereo not given) had a melting point of 221 to 222 °C.

For the compound `CCCc1cc(=O)[nH]c2c3c(cc(O)c12)OC(C)C(C)C3=O` (stereo not given), the melting point is 295 to 296 °C.

Consider `COc1ccc(C2Sc3c(ccc4ccccc34)NC(=O)C2O)cc1` (stereo not given), for which the melting point is 232 to 234 °C.

For `C[C@@H]1Cc2ccsc2[C@H](C)N1CCNC(=O)c1ccc(NC(=O)C(C)(C)C)cc1` (relative stereo), the melting point turned out to be 133 °C.

Take `O=C1CCc2c(OCCCl)cccc21`: the melting point was in the range of 56 to 58 °C.

The compound `O=C(N(C1CCNCC1)C1CC1)N1N=C2c3cc(F)ccc3OC[C@@H]2[C@@H]1c1ccccc1` (racemic) came in with a melting point of 142 °C.
